Results reported in patent US20050142169A1, “Palatability enhanced composition and method for animal consumption” (priority 2003, published 2005).
Where two headings read alike, the source gives them in different places.

Experiments:
dogs [1] = conditions: for Intake Ratio / Preference (%) control composition / Preference (%) test composition / Status (vs. control): dry wt. of kibble, dogs, Hill's Canine Maintenance Adult
Excerpt: The experiment comprised mixing various amounts of 2,5-dimethyl-4-hydroxy-3(2H)-furanone (0.2% to 1.2%) with a commercial liquid palatant enhancer as a carrier to form a flavored palatant (hereinafter test flavor). The test flavor (2.0%, dry weight basis) was topically applied to a dry, commercial dog food (Hill's Canine Maintenance Adult, a Science Diet for adult dogs commercially available from Hill's Pet Nutrition, Inc., Topeka, Kans.) after sequential application of soy bean oil (1.2%, dry weight basis) and choice white grease (7.9%, dry weight basis) to form a test composition.
Each test composition was compared against a control composition in a palatability test. The control compositions were prepared by topically applying the commercial liquid palatant enhance (2.0% dry weight basis) to the dry, commercial dog food (Hill's Canine Maintenance Adult) after sequential application of soy bean oil (1.2%, dry weight basis) and choice white grease (7.9%, dry weight basis). Palatability was determined by comparing the test composition and the control composition in a standard two-bowl preference test over two days with 20 dogs.

dogs [2] = assay: two-bowl preference test, Example 2 (Canine r/d); assay type: in vivo, dog; conditions: dry wt. of kibble
Protocol: Each of the test flavors (2.0%, dry weight basis) was topically applied to a dry, commercial dog food (Canine r/d from Hill's Pet Nutrition, Inc.) after sequential application of soy bean oil (2.0%, dry weight basis) and choice white grease (0.4%, dry weight basis) to form a test composition. Each test composition was compared against a control composition in a palatability test as described in Example 1. The control compositions were prepared by topically applying the commercial liquid palatant enhancer (2.0% dry weight basis) to the dry, commercial dog food (Canine r/d) after sequential application of soy bean oil (2.0%, dry weight basis) and choice white grease (0.4%, dry weight basis). Palatability was determined by comparing the test composition and the control composition in a standard two-bowl preference test over two days with 20 dogs as described in Example 1.

cats = assay: two-bowl preference test, Example 5 (Feline w/d); assay type: in vivo, cat; conditions: dry wt. of kibble
Excerpt: Finally, a commercial dry palatant enhancer (1.4% dry weight basis) was topically applied to the dry kibbles to complete the test composition.

CC1=C(O)C(=O)C(C)O1 (stereo not shown) [2,5-dimethyl-4-hydroxy-3(2H)-furanone]
Intake Ratio (dogs [1]; Exp. No. 2, 43.5 ppm): 0.5705 | Preference (%) control composition (dogs [1]; Exp. No. 2, 43.5 ppm): 27.8% | Preference (%) test composition (dogs [1]; Exp. No. 2, 43.5 ppm): 61.1% | Status (vs. control) (dogs [1]; Exp. No. 2, 43.5 ppm): Parity | Intake Ratio (dogs [1]; Exp. No. 3, 87.1 ppm): 0.7361 | Preference (%) control composition (dogs [1]; Exp. No. 3, 87.1 ppm): 10.0% | Preference (%) test composition (dogs [1]; Exp. No. 3, 87.1 ppm): 90.0% | Status (vs. control) (dogs [1]; Exp. No. 3, 87.1 ppm): Win | Intake Ratio (dogs [1]; Exp. No. 4, 130.5 ppm): 0.5673 | Preference (%) control composition (dogs [1]; Exp. No. 4, 130.5 ppm): 25.0% | Preference (%) test composition (dogs [1]; Exp. No. 4, 130.5 ppm): 50.0% | Status (vs. control) (dogs [1]; Exp. No. 4, 130.5 ppm): Win | Intake Ratio (dogs [1]; Exp. No. 5, 217.5 ppm): 0.6575 | Preference (%) control composition (dogs [1]; Exp. No. 5, 217.5 ppm): 40.0% | Preference (%) test composition (dogs [1]; Exp. No. 5, 217.5 ppm): 60.0% | Status (vs. control) (dogs [1]; Exp. No. 5, 217.5 ppm): Win | Intake Ratio (dogs [1]; Exp. No. 6, 217.5 ppm): 0.8206 | Preference (%) control composition (dogs [1]; Exp. No. 6, 217.5 ppm): 5.0% | Preference (%) test composition (dogs [1]; Exp. No. 6, 217.5 ppm): 95.0% | Status (vs. control) (dogs [1]; Exp. No. 6, 217.5 ppm): Win | intolerance of the test palatant following intake (dogs [1]; dog, in vivo): No evidence of any intolerance | Intake Ratio (dogs [2]; Exp. No. 1, 21.75 ppm): 0.5843 | Preference (%) control composition (dogs [2]; Exp. No. 1, 21.75 ppm): 42.9% | Preference (%) test composition (dogs [2]; Exp. No. 1, 21.75 ppm): 50.0% | Status (vs. control) (dogs [2]; Exp. No. 1, 21.75 ppm): Parity | Intake Ratio (dogs [2]; Exp. No. 2, 43.5 ppm): 0.6667 | Preference (%) control composition (dogs [2]; Exp. No. 2, 43.5 ppm): 16.7% | Preference (%) test composition (dogs [2]; Exp. No. 2, 43.5 ppm): 77.8% | Status (vs. control) (dogs [2]; Exp. No. 2, 43.5 ppm): Win | Intake Ratio (dogs [2]; Exp. No. 3, 87.1 ppm): 0.5732 | Preference (%) control composition (dogs [2]; Exp. No. 3, 87.1 ppm): 29.4% | Preference (%) test composition (dogs [2]; Exp. No. 3, 87.1 ppm): 64.7% | Status (vs. control) (dogs [2]; Exp. No. 3, 87.1 ppm): Parity | Intake Ratio (dogs [2]; Exp. No. 4, 174.0 ppm): 0.5523 | Preference (%) control composition (dogs [2]; Exp. No. 4, 174.0 ppm): 31.3% | Preference (%) test composition (dogs [2]; Exp. No. 4, 174.0 ppm): 50.0% | Status (vs. control) (dogs [2]; Exp. No. 4, 174.0 ppm): Parity | Intake Ratio (dogs [2]; Exp. No. 5, 217.5 ppm): 0.5047 | Preference (%) control composition (dogs [2]; Exp. No. 5, 217.5 ppm): 66.7% | Preference (%) test composition (dogs [2]; Exp. No. 5, 217.5 ppm): 33.3% | Status (vs. control) (dogs [2]; Exp. No. 5, 217.5 ppm): Parity | Intake Ratio (dogs [2]; Exp. No. 6, 282.8 ppm): 0.4297 | Preference (%) control composition (dogs [2]; Exp. No. 6, 282.8 ppm): 47.1% | Preference (%) test composition (dogs [2]; Exp. No. 6, 282.8 ppm): 52.9% | Status (vs. control) (dogs [2]; Exp. No. 6, 282.8 ppm): Parity | Intake Ratio (cats; Exp. No. 1, 5.0 ppm): 0.7676 | Preference (%) control composition (cats; Exp. No. 1, 5.0 ppm): 8.0% | Preference (%) test composition (cats; Exp. No. 1, 5.0 ppm): 92.0% | Status (vs. control) (cats; Exp. No. 1, 5.0 ppm): Win | Intake Ratio (cats; Exp. No. 2, 10.0 ppm): 0.8135 | Preference (%) control composition (cats; Exp. No. 2, 10.0 ppm): 8.0% | Preference (%) test composition (cats; Exp. No. 2, 10.0 ppm): 88.0% | Status (vs. control) (cats; Exp. No. 2, 10.0 ppm): Win | Intake Ratio (cats; Exp. No. 3, 20.0 ppm): 0.8151 | Preference (%) control composition (cats; Exp. No. 3, 20.0 ppm): 12.0% | Preference (%) test composition (cats; Exp. No. 3, 20.0 ppm): 88.0% | Status (vs. control) (cats; Exp. No. 3, 20.0 ppm): Win | Intake Ratio (cats; Exp. No. 4, 30.0 ppm): 0.7546 | Preference (%) control composition (cats; Exp. No. 4, 30.0 ppm): 20.0% | Preference (%) test composition (cats; Exp. No. 4, 30.0 ppm): 80.0% | Status (vs. control) (cats; Exp. No. 4, 30.0 ppm): Win | Intake Ratio (cats; Exp. No. 5, 40.0 ppm): 0.7626 | Preference (%) control composition (cats; Exp. No. 5, 40.0 ppm): 12.0% | Preference (%) test composition (cats; Exp. No. 5, 40.0 ppm): 88.0% | Status (vs. control) (cats; Exp. No. 5, 40.0 ppm): Win | Intake Ratio (cats; Exp. No. 6, 50.0 ppm): 0.8505 | Preference (%) control composition (cats; Exp. No. 6, 50.0 ppm): 8.0% | Preference (%) test composition (cats; Exp. No. 6, 50.0 ppm): 92.0% | Status (vs. control) (cats; Exp. No. 6, 50.0 ppm): Win | Intake Ratio (cats; Exp. No. 7, second set of experiments, 5.0 ppm): 0.9385
